Results from EP4810579A1, “AQUEOUS COATING COMPOSITION” (Chugoku Marine Paints, Ltd., priority 2023, dated 2025).

Test: Aqueous solubility of organic solvent, EPA830.7840 flask shaking method
Format: physicochemical
Details: 1 atm and 23°C
Source text: The upper limit of the aqueous solubility of the organic solvent (B) is not particularly limited. The organic solvent (B) may be, for example, a water-miscible organic solvent that can be mixed with water in an arbitrary amount. […] The aqueous solubility of the organic solvent (B) represents the maximum amount (g) of the organic solvent dissolved in 100 g of water.

Aqueous solubility	amount of the organic solvent dissolved in 100 g of water	Structure (SMILES)
miscible	miscible	CCCCOCCOCCO [Diethylene glycol monobutyl ether]
4 g/100 g of water	4 g	OCc1ccccc1 [Benzyl alcohol]
18 g/100 g of water	18 g	CCCOC(C)COC(C)CO (stereo not drawn) [Dipropylene glycol monopropyl ether]
miscible	–	COC(C)COC(C)CO (stereo not drawn) [Dipropylene glycol monomethyl ether]
3 g/100 g of water	3 g	CCCCOC(C)COC(C)COC(C)CO (stereo not drawn) [Tripropylene glycol monobutyl ether]
–	miscible	COC(C)COC(C)COC(C)CO (stereo not drawn) [tripropylene glycol monomethyl ether]
miscible	–	COCC(C)O (stereo not drawn) [Propylene glycol monomethyl ether]

Structure (SMILES)	Aqueous solubility	amount of the organic solvent dissolved in 100 g of water
OCCOc1ccccc1 [ethylene glycol monophenyl ether]	–	2.3 g
